Laboratory results from patent publication US9250238B2, “Pathogen detection” (priority 2010, dated 2016).

How the values were obtained:
peanut lectin = biological target: T1, peanut lectin (Arachis hypogaea, UniProt P02872); test: Flow immunocytometry of peanut lectin binding to lactose-conjugated microspheres
T1 construct: purchased Sigma (St. Louis, Mo.)
Description: Bishydrazide glycoconjugates can be directly attached onto surface-active substrates for the selective capture of lectins and subsequent binding immunoassays. For example, lactosebishydrazide 6 was attached onto NHS-activated latex microspheres in order to measure the binding affinity of peanut lectin by flow immunocytometry (Kd)) 50 nM), using a FITC-labeled secondary antibody for fluorescence detection (FIGS. 12A and 13). […] However, in some cases the use of carrier proteins such as BSA may be more convenient for surface functionalization by simple physisorption.
For flow cytometry, carboxylic acid functionalized microspheres were conjugated to lactose-bishydrazide 6 via standard EDC coupling for 16 hours at room temperature, followed by multiple washes with PBS. The lactose-conjugated microspheres were dispersed in PBS (1.2 mL) and split into several Eppendorf tubes, which were incubated with increasing concentrations of peanut lectin in the presence or absence of 100-fold excess lactose. After incubating for 2 hours at room temperature, tubes were rinsed and subjected to sequential incubation with anti-lectin rabbit IgG and anti-rabbit FITC IgG as described above. The microspheres were then analyzed for fluorescent immunolabeling using a flow cytometer (Cytomics F500, Beckman Coulter, 10^4 microspheres/sample). […]

Acinetobacter baumanii = test: PathoChip detection sensitivity; format: binding; settings: ligand conjugated to BSA
Chlamydia trachomatis = test: PathoChip detection sensitivity; format: binding; settings: ligand conjugated to BSA
Mycobacterium smegmatis = test: PathoChip detection sensitivity; format: binding; settings: ligand conjugated to BSA
Pseudomonas aeruginosa [1] = test: PathoChip detection sensitivity; format: binding; settings: ligand conjugated to BSA
Shigella spp. = test: PathoChip detection sensitivity; format: binding; settings: ligand conjugated to BSA
Staphylococcus aureus = test: PathoChip detection sensitivity; format: binding; settings: ligand conjugated to BSA
Vibrio cholerae = test: PathoChip detection sensitivity; format: binding; settings: ligand conjugated to BSA
Y. enterocolitica = test: Capture on FOB-BSA micropatterned chips, darkfield and FFT; format: binding, Yersinia enterocolitica; settings: NHS-activated codelink slide, 10^8 cfu/ml
Pseudomonas aeruginosa [2] = test: Capture of Pseudomonas on glycan-patterned substrates, darkfield and FFT; format: binding
Source text: A similar approach was used to generate photopatterned arrays of the pulmonary trisaccharide and 2′-fucosyllactose on BSA-coated substrates, using glycan-bishydrazide-ANB conjugates 16 and 17, respectively. These micropatterned substrates were exposed to the opportunistic pathogen Pseudomonas aeruginosa at 10^6-10^8 cfu/mL, then washed and imaged by optical darkfield microscopy to visualize patterns of glycan-immobilized bacteria in a label-free manner (FIGS. 15-17). […] Furthermore, only live Pseudomonas were captured by the trisaccharide ligands; exposing the bacteria to UV irradiation for 2 hours prior to their introduction resulted again in no observable pattern (FIG. 18). […]
Glycan-bishydrazide conjugates could also be patterned onto substrates by microcontact printing (μCP), a well-established “soft lithography” technique based on microfabricated polydimethylsiloxane (PDMS) stamps for the physical transfer of organic or biomolecular ligands, including glycans (Kumar and Whitesides, Appl. Phys. Lett. 1993, 63:2002-2004; Bernard et al., Adv. Mater. 2000, 12:1067-1070; Inerowicz et al., Langmuir 2002, 18:5263-5268; Godula et al., Angew. Chem., Int. Ed 2009, 48:4973-4976; Wendeln et al., Langmuir 2010, 26:4933-4940). […] The substrates were blocked then exposed for 1 hour to Pseudomonas at 10^2-10^8 cfu/mL, then evaluated for evidence of patterned pathogen capture (FIGS. 19, 19A). […]

Streptococcus pneumonaie = test: PathoChip detection sensitivity; format: binding; settings: ligand conjugated to BSA

T1 sequence (P02872 24-273): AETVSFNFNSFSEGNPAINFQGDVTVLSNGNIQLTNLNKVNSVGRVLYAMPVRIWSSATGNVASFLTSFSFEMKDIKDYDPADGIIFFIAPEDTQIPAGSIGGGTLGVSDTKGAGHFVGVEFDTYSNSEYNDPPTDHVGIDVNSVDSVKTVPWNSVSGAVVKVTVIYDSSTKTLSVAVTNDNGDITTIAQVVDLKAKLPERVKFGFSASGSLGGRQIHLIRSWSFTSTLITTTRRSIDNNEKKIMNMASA

NNC(=O)COCCOCCOCCOCCOCCOCCOCC(=O)NN[C@@H]1OC(CO)[C@@H](OC2OC(CO)[C@H](O)[C@H](O)[C@@H]2O)[C@H](O)C1O (stereo partly shown) [conjugate 6, Hexa(ethylene glycol)-linked lactose-bishydrazide conjugate]
Kd (peanut lectin; 6 attached to NHS-activated latex microspheres, FITC secondary antibody): 0.05 µM
increase of Kd in competition assay (peanut lectin; against 1 mM lactose): 10 fold

heparin
sensitivity, Acinetobacter baumanii (Acinetobacter baumanii): 1E6 cfu/mL
sensitivity, Chlamydia trachomatis (Chlamydia trachomatis): 1E3 cfu/mL
sensitivity, Chlamydia trachomatis (Chlamydia trachomatis; listed as Heparin): 10^3 cfu/mL
sensitivity, Mycobacterium smegmatis (Mycobacterium smegmatis): 1E6 cfu/mL
sensitivity, Pseudomonas aeruginosa (Pseudomonas aeruginosa [1]): 1E6 cfu/mL
sensitivity, Shigella spp. (Shigella spp.): 1E6+ cfu/mL
sensitivity, Staphylococcus aureus (Staphylococcus aureus): 1E6 cfu/mL
sensitivity, Vibrio cholerae (Vibrio cholerae): 1E6+ cfu/mL

CC(=O)N([O-])CCCCCNC(=O)CCC(=O)N([O-])CCCCCNC(=O)CCC(=O)N([O-])CCCCCN.[Fe+3] [FOB, ferrioxamine]
bacteria binding with ligand attached directly, no BSA linker (Y. enterocolitica): less bacteria binding onto the pattern than in the presence of BSA

Hexa(ethylene glycol)-Linked 2′-Fucosyllactose-Bishydrazide Conjugate [conjugate 8]
avidity of Pseudomonas cultures relative to pulmonary trisaccharide 7 (Pseudomonas aeruginosa [2]): much lower avidity

Hemin
sensitivity, Pseudomonas aeruginosa (Pseudomonas aeruginosa [1]): 1E3 cfu/mL
sensitivity, Staphylococcus aureus (Staphylococcus aureus): 1E3 cfu/mL
sensitivity, Streptococcus pneumonaie (Streptococcus pneumonaie): 1E5 cfu/mL
sensitivity, Vibrio cholerae (Vibrio cholerae): 1E6/1E6 cfu/mL
